Holding throughout (assay type): biochemical
Assay [1] addresses T1, human neutrophil elastase (Homo sapiens, UniProt P08246).
T1 construct: purchased Serva Electrophoresis, Germany
T1 sequence (P08246 30-267): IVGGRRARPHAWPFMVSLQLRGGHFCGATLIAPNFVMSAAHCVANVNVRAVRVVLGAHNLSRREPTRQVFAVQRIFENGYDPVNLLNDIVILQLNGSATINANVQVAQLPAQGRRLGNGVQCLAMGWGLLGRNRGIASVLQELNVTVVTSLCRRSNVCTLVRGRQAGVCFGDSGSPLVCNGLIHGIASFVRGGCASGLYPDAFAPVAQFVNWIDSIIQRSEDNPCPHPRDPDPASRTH
Put plainly: Inhibition of human neutrophil elastase (MeOSuc-AAPV-pNA hydrolysis). Here is the method:
2.2. Inhibition of Human Neutrophil Elastase
The ability of the peptides of the invention to inhibit the hydrolysis activity of human neutrophil elastase (Serva Electrophoresis, Germany) using the synthetic tetrapeptidic substrate MeOSuc-AAPV-pNA (Bachem, Switzerland) was determined as follows:
The above substrate (0.3 mM) and human neutrophil elastase (10 nM) were incubated at 37° C. with serial dilutions of the peptides (1% DMSO final) in assay buffer (50 mM Tris, pH 8, 300 mM NaCl, 0.01% Tween20). The release of pNA was followed by monitoring the change in absorbance at 405 nm for 30 minutes. Control assays with the same assay set-up as above, but without peptide, ran linearly. The dose-response data were fitted to the 4-parameter Hill equation providing the IC50 value using Graphpad (Prism 5).

Assay [2] has as its target T2, porcine pancreatic elastase (Sus scrofa, UniProt P00772).
T2 construct: purchased Sigma, USA
Put plainly: Inhibition of porcine pancreatic elastase (MeOSuc-AAA-pNA hydrolysis). Conditions: for hNE/PPE selectivity: ratio of PPE IC50 to hNE IC50. Here is the method: 2.3. Inhibition of Porcine Pancreatic Elastase
The ability of the peptides of the invention to inhibit the hydrolysis activity of porcine pancreatic elastase (Sigma, USA) using the synthetic tripeptidic substrate MeOSuc-AAA-pNA (Bachem, Switzerland) was determined as follows:
The above substrate (1 mM) and […] porcine pancreatic elastase (15 nM) were incubated at 37° C. with serial dilutions of the peptides (0.5% DMSO final) in assay buffer (50 mM Tris, pH8, 100 mM NaCl, 0.01% Tween20). The release of pNA was followed by monitoring the change in absorbance at 405 nm for 30 minutes. Control assays with the same assay set-up as above, but without peptide, ran linearly. The dose-response data were fitted to the 4-parameter Hill equation providing the IC50 value using Graphpad (Prism 5).

Another assay addresses T3, human proteinase 3 (Homo sapiens, UniProt P24158).
T3 construct: purchased Elastin Products Company, USA
T3 sequence (P24158 28-248): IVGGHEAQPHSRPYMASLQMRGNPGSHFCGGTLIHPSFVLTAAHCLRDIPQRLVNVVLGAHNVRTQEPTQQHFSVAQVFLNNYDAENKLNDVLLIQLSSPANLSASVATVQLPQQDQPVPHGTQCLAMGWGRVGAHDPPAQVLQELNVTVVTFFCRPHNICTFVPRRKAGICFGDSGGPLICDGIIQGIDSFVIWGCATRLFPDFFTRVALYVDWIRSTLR
Put plainly: Inhibition of human proteinase 3 (Boc-Ala-Ala-Nva-SBzl). The conditions noted are these: for hNE/hPr3 selectivity: ratio of hPr3 IC50 to hNE IC50. Here is the method: 2.4. Inhibition of Human Proteinase 3
The inactivation of human proteinase 3 (Elastin Products Company, USA) by the peptides of the invention using synthetic tripeptidic substrate Boc-Ala-Ala-Nva-SBzl (Elastin Products Company, USA) was determined as follows:
The above substrate (1 mM), 4,4′-dithiodipyridine (250 μM) and human proteinase 3 (10 nM) were incubated at 37° C. with serial dilutions of the peptides (0.5% DMSO final) in assay buffer (50 mM Tris, pH7.4, 150 mM NaCl, 0.01% Tween20). The reaction process was followed by monitoring the change in absorbance at 340 nm for 30 minutes. Control assays with the same assay set-up as above, but without peptide, ran linearly. The dose-response data were fitted to the 4-parameter Hill equation providing the IC50 value using Graphpad (Prism 5).

[3] abbreviates: 10 nM enzyme, 0.3 mM substrate, 37° C., pH 8, read-out: Human neutrophil elastase (hNE) IC50.
[4] abbreviates: 15 nM enzyme, 1 mM substrate, 37° C., pH8, read-out: Porcine pancreatic elastase (PPE) IC50.
[5] abbreviates: 10 nM enzyme, 1 mM substrate, 37° C., pH7.4, read-out: Human proteinase 3 (hPr3) IC50.

Like-named read-outs stand apart in the source and are kept apart here. Non-standard residues stand in square brackets, D forms with d. Residues, ends and D or L forms follow the SMILES beside them. *: point of attachment. Gly(octyl) = CCCCCCCC[C@H](N)C(=O)O; hTyr = N[C@@H](CCc1ccc(O)cc1)C(=O)O; NHPhenethyl = c1ccc(CCN*)cc1; hLeu = CC(C)CC[C@H](N)C(=O)O Bounds are passed on as bounds.

T2 sequence (P00772 27-266): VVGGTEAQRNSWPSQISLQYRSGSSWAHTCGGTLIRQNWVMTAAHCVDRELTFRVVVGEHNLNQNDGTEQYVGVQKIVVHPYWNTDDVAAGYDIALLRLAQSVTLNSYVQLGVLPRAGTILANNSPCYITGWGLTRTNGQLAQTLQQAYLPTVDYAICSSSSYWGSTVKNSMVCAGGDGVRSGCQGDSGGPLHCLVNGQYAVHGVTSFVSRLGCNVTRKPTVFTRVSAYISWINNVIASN

As a reminder, the IC50 is the midpoint of a concentration-inhibition curve. For `CCCCCCCC[C@@H]1NC(=O)[C@@H]2CCCN2C(=O)[C@H]2CCCN2C(=O)[C@H](CC(N)=O)NC(=O)[C@H](CCCCN)NC(=O)[C@H](CCC(N)=O)NC(=O)[C@@H]2CCCN2C(=O)[C@@H]2CCCN2C(=O)[C@H]([C@@H](C)CC)NC(=O)[C@H](CO)NC(=O)[C@H](C)NC(=O)[C@H]([C@@H](C)O)NC(=O)[C@H](CCC(=O)O)NC1=O` [Example 1, Cyclo(-OctGly-Glu-Thr-Ala-Ser-Ile-Pro-Pro-Gln-Lys-Asn-^DPro-Pro-)] (cyclo([Gly(octyl)]ETASIPPQKN[dP]P)), the half-inhibitory concentration (IC50) came out at 0.0053 µM in assay [1] (setting [3]), 1.55 µM in assay [2] (setting [4]) and 1.81 µM at human proteinase 3 (setting [5]). The hNE/PPE selectivity in assay [2] is 292. Also, the hNE/hPr3 selectivity on human proteinase 3 is on record as 342.
The matching figures for `CC[C@H](C)[C@@H]1NC(=O)[C@H](CO)NC(=O)[C@H](C)NC(=O)[C@H]([C@@H](C)O)NC(=O)[C@H](CCC(=O)O)NC(=O)[C@H](CCCNC(=N)N)NC(=O)[C@@H]2CCCN2C(=O)[C@H]2CCCN2C(=O)[C@H](CCC(C)C)NC(=O)[C@H](CCCCN)NC(=O)[C@H](CCC(N)=O)NC(=O)[C@@H]2CCCN2C(=O)[C@@H]2CCCN2C1=O` [Example 10, Cyclo(-Arg-Glu-Thr-Ala-Ser-Ile-Pro-Pro-Gln-Lys-hLeu-^DPro-Pro-)] (cyclo(RETASIPPQK[hLeu][dP]P)): 0.03 µM, greater than 100 µM, greater than 100 µM, greater than 3333 and greater than 3333.
The corresponding values for `CC[C@H](C)[C@@H]1NC(=O)[C@H](CO)NC(=O)[C@H](C)NC(=O)[C@H]([C@@H](C)O)NC(=O)[C@H](C(C)C)NC(=O)[C@H](CCCNC(=N)N)NC(=O)[C@@H]2CCCN2C(=O)[C@H]2CCCN2C(=O)[C@H](Cc2ccc(O)cc2)NC(=O)[C@H](CCCCN)NC(=O)[C@H](CCC(N)=O)NC(=O)[C@@H]2CCCN2C(=O)[C@@H]2CCCN2C1=O` [Example 18, Cyclo(-Arg-Val-Thr-Ala-Ser-Ile-Pro-Pro-Gln-Lys-Tyr-^DPro-Pro-)] (cyclo(RVTASIPPQKY[dP]P)) are 0.0069 µM, 7.2 µM, 1.8 µM, 1043 and 261.
For `CC[C@H](C)[C@@H]1NC(=O)[C@H](CO)NC(=O)[C@H](C)NC(=O)[C@H]([C@@H](C)O)NC(=O)[C@H](CCC(=O)O)NC(=O)[C@H](CCC(=O)NCCc2ccccc2)NC(=O)[C@@H]2CCCN2C(=O)[C@H]2CCCN2C(=O)[C@H](Cc2ccc(O)cc2)NC(=O)[C@H](CCCCN)NC(=O)[C@H](CCC(N)=O)NC(=O)[C@@H]2CCCN2C(=O)[C@@H]2CCCN2C1=O` [Example 15, Cyclo(-Glu(Phenethyl)-Glu-Thr-Ala-Ser-Ile-Pro-Pro-Gln-Lys-Tyr-^DPro-Pro-)] (cyclo(E(NHPhenethyl)ETASIPPQKY[dP]P)), the half-inhibitory concentration (IC50) in assay [1] is 0.0186 µM. In assay [2], the IC50 was found to be 1.62 µM and the hNE/PPE selectivity was 87. Moreover, on human proteinase 3, the IC50 turned out to be 6.69 µM and the hNE/hPr3 selectivity amounted to 360.
With `CC[C@H](C)[C@@H]1NC(=O)[C@H](CO)NC(=O)[C@H](C)NC(=O)[C@H]([C@@H](C)O)NC(=O)[C@H](CCC(=O)O)NC(=O)[C@H](CCCNC(=N)N)NC(=O)[C@@H]2CCCN2C(=O)[C@H]2CCCN2C(=O)[C@H]([C@@H](C)O)NC(=O)[C@H](CCCCN)NC(=O)[C@H](Cc2ccc(O)cc2)NC(=O)[C@@H]2CCCN2C(=O)[C@@H]2CCCN2C1=O` [Example 13, Cyclo(-Arg-Glu-Thr-Ala-Ser-Ile-Pro-Pro-Tyr-Lys-Thr-^DPro-Pro-)] (cyclo(RETASIPPYKT[dP]P)), the figures for the IC50 (in assay [1] (setting [3]); in assay [2] (setting [4]); at human proteinase 3 (setting [5])) were 0.0306 µM, greater than 100 µM and greater than 100 µM, respectively. Besides, the hNE/PPE selectivity in assay [2] is given as greater than 3268. The hNE/hPr3 selectivity on human proteinase 3 was greater than 3268.
Turning to `CC[C@H](C)[C@@H]1NC(=O)[C@H](CO)NC(=O)[C@H](C)NC(=O)[C@H]([C@@H](C)O)NC(=O)[C@H](CCC(=O)O)NC(=O)[C@H](CCCNC(=N)N)NC(=O)[C@@H]2CCCN2C(=O)[C@H]2CCCN2C(=O)[C@H](CO)NC(=O)[C@H](CCCCN)NC(=O)[C@H](Cc2ccc(O)cc2)NC(=O)[C@@H]2CCCN2C(=O)[C@@H]2CCCN2C1=O` [Example 8, Cyclo(-Arg-Glu-Thr-Ala-Ser-Ile-Pro-Pro-Tyr-Lys-Ser-^DPro-Pro-)] (cyclo(RETASIPPYKS[dP]P)), the values for the half-inhibitory concentration (IC50) (in assay [1] (setting [3]); in assay [2] (setting [4]); at human proteinase 3 (setting [5])) were 0.0164 µM, 45.2 µM and 88.1 µM, respectively. For the same compound, in assay [2], the hNE/PPE selectivity is 2756. Besides, the hNE/hPr3 selectivity on human proteinase 3 is recorded as 5372.
On to `CCCCCCCC[C@@H]1NC(=O)[C@@H]2CCCN2C(=O)[C@H]2CCCN2C(=O)[C@H](CO)NC(=O)[C@H](CCCCN)NC(=O)[C@H](CCC(N)=O)NC(=O)[C@@H]2CCCN2C(=O)[C@@H]2CCCN2C(=O)[C@H]([C@@H](C)CC)NC(=O)[C@H](CO)NC(=O)[C@H](C)NC(=O)[C@H]([C@@H](C)O)NC(=O)[C@H](CCC(=O)O)NC1=O` [Example 3, Cyclo(-OctGly-Glu-Thr-Ala-Ser-Ile-Pro-Pro-Gln-Lys-Ser-^DPro-Pro-)] (cyclo([Gly(octyl)]ETASIPPQKS[dP]P)), for which the concentration for half-maximal inhibition (IC50) came out at 0.0055 µM in assay [1] (setting [3]), 0.79 µM in assay [2] (setting [4]) and 1.44 µM on human proteinase 3 (setting [5]). The hNE/PPE selectivity in assay [2] is reported as 144. Further, the hNE/hPr3 selectivity on human proteinase 3 turned out to be 262.
The matching figures for `CC[C@H](C)[C@@H]1NC(=O)[C@H](CO)NC(=O)[C@H](C)NC(=O)[C@H]([C@@H](C)O)NC(=O)[C@H](CCc2ccc(O)cc2)NC(=O)[C@H](CCCNC(=N)N)NC(=O)[C@@H]2CCCN2C(=O)[C@H]2CCCN2C(=O)[C@H]([C@@H](C)O)NC(=O)[C@H](CCCCN)NC(=O)[C@H](CCC(N)=O)NC(=O)[C@@H]2CCCN2C(=O)[C@@H]2CCCN2C1=O` [Example 17, Cyclo(-Arg-hTyr-Thr-Ala-Ser-Ile-Pro-Pro-Gln-Lys-Thr-^DPro-Pro-)] (cyclo(R[hTyr]TASIPPQKT[dP]P)): 0.0156 µM, 66.4 µM, 83.9 µM, 4256 and 5378.
As for `CC[C@H](C)[C@@H]1NC(=O)[C@H](CO)NC(=O)[C@H](C)NC(=O)[C@H]([C@@H](C)O)NC(=O)[C@H](CCC(=O)O)NC(=O)[C@H](CCCNC(=N)N)NC(=O)[C@@H]2CCCN2C(=O)[C@H]2CCCN2C(=O)[C@H]([C@@H](C)O)NC(=O)[C@H](CCCCN)NC(=O)[C@H](CCC(N)=O)NC(=O)[C@@H]2CCCN2C(=O)[C@@H]2CCCN2C1=O` [Example 11, Cyclo(-Arg-Glu-Thr-Ala-Ser-Ile-Pro-Pro-Gln-Lys-Thr-^DPro-Pro-)] (cyclo(RETASIPPQKT[dP]P)), the IC50 in assay [1] (setting [3]) is 0.0125 µM; in assay [2] (setting [4]), greater than 100 µM; on human proteinase 3 (setting [5]), greater than 100 µM. The hNE/PPE selectivity in assay [2] is reported as greater than 8000. Further, the hNE/hPr3 selectivity on human proteinase 3 was greater than 8000.
